Experimental data as given in PMC9437035, “Decoding the olfactory map through targeted transcriptomics links murine olfactory receptors to glomeruli” (Nature Communications, 2022).

Legend:
Olfr1377 [1] = molecular target: T1, Olfr1377 (Mus musculus, UniProt B2RQ46); test: CRE-luciferase reporter assay in Hana3A cells; format: cell-based; parameters: expressed from plasmid in Hana3A cells with RTP1S and M3R
T1 sequence (B2RQ46 1-307): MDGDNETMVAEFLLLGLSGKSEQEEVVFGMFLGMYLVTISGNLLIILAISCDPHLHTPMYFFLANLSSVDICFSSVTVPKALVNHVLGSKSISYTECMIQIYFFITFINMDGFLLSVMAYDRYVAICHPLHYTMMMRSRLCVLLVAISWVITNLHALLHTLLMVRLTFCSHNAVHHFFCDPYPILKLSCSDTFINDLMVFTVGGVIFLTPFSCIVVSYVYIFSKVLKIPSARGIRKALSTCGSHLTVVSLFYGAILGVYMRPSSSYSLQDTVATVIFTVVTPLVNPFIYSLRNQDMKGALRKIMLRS

Olfr1377 [2] = molecular target: T1, Olfr1377; test: in vivo two-photon GCaMP6s imaging of the receptor-tagged glomerulus; parameters: native receptor in mKate2-labelled olfactory sensory neurons (IRES-mKate2 after the CDS, receptor unaltered); details: agonist; estimated delivered odorant concentration (olfactometer), anesthetized mice
Olfr1377 [3] = molecular target: T1, Olfr1377; test: as above; parameters: native receptor in mKate2-labelled olfactory sensory neurons (IRES-mKate2 after the CDS, receptor unaltered); details: agonist; inhaled odorant on the order of 10^0 nM, anesthetized mice
Olfr881 = molecular target: T2, Olfr881 (Mus musculus, UniProt Q8VF63); test: in vivo two-photon GCaMP6s imaging of the receptor-tagged glomerulus; pS6-IP RNA-Seq; details: agonist; inhaled odorant, anesthetized mice (imaging)
T2 construct: gene Or8b35; native receptor in mKate2-labelled olfactory sensory neurons (IRES-mKate2 after the CDS, receptor unaltered)
T2 sequence (Q8VF63 1-314): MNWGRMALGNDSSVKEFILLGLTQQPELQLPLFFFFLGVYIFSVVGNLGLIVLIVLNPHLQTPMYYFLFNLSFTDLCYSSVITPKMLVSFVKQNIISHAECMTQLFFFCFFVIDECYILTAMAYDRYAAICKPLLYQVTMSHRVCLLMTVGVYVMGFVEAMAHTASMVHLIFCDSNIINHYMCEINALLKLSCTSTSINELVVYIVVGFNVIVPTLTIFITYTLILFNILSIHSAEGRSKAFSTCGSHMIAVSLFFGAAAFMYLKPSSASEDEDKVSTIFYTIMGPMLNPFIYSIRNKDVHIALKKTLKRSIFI

Row | SMILES | EC50 (Olfr1377 [1]) [µM] | glomerular response to odorant (Olfr1377 [3]) | also measured
1 | CC(=O)c1ccccc1O [2′-hydroxyacetophenone] | 300 | – | –
2 | COc1ccc(C(C)=O)cc1 [4-methoxyacetophenone] | 0.008 | – | in vivo response threshold (Olfr1377 [2]): ~ 10^−13 M
3 | CC(=O)C=C(C)C [4-methyl-3-penten-2-one] | – | Olfr1377 showed strong responses to p-anisaldehyde, acetophenone, and the aliphatic ketone 4-methyl-3-penten-2-one | –
4 | CC(=O)c1ccc(C)cc1 [4-methylacetophenone] | 1 | – | in vivo two-photon GCaMP6s imaging of the receptor-tagged glomerulus; pS6-IP RNA (Olfr881): both Olfr1377 and Olfr881 exhibited robust responses to low concentrations of 4-methylacetophenone
5 | CC(=O)c1ccccc1 [acetophenone] | 10.1 | – | –
6 | COc1ccc(C=O)cc1 [p-anisaldehyde] | – | Olfr1377 showed strong responses to p-anisaldehyde, acetophenone, and the aliphatic ketone 4-methyl-3-penten-2-one | –
